Laboratory results taken from patent publication US20220259585A1, “METHODS OF MAKING AND UTILIZING AMBER-OBLIGATED PHAGE DISPLAY LIBRARIES” (The Texas A&M University System, priority 2019, published 2022).
Numbered stars: 1 amine (or outer) side, 2 acyl side, 3 side chain; on linkers, the order of the positions; unused ones are H or OH. Square brackets hold non-standard residues; d marks the D form. Peptide text beside a SMILES is read from it. X1 = CCCC(=S)NCCCC[C@H](N[*:1])C(=O)[*:2]; Abu = CC[C@H](N)C(=O)O

Experiments:
MCF-7 cells = experiment: Western blot of α-tubulin K40 acetylation in MCF-7 cells (SIRT2 inhibition in cells); format: cell-based, human; settings: 24 hours; for increase in acetylation level compared to S2P04 in vivo (in cells): cell line not given, cell cultures 50 μM; for α-tubulin acetylation (lysine 40): MCF-7 cells, 50 μM, versus vehicle control (0.25% DMF)
Protocol: (§1) Finally, Applicant tested the ability of S2P04, a selected peptide with intermediate potency, to inhibit SIRT2 in human embryonic kidney (HEK 293T) and breast cancer cells (MCF-7). […] Following incubation with the inhibitor, Applicant measured the acetylation level of lysine 40 of α-tubulin, a known deacetylation substrate of SIRT2.
MCF-7 (HTB-22) and HEK 293T (CRL-11268) cells purchased from American Type Culture Collection were grown in Dulbecco's Modified Eagle Medium (Invitrogen) containing 10% fetal bovine serum (Invitrogen) at 37° C. in an atmosphere of 5% CO2. Cells were seeded in a 6-well plate (Falcon 353046) at 5×10^5 viable cells/well, and grown for 24-48 hours to 60-70% confluence. […] After incubating with the inhibitors for 24 hours, the media was removed and the cells were washed twice with ice-cold PBS (Invitrogen). Cells were lysed on ice for 30 minutes in 100 μL of buffer containing 25 mM Tris pH 7.4, 150 mM NaCl, 10% glycerol, 4 mM MgCl2, 0.2 mM DTT, 1% NP-40, 25 mM nicotinamide, 5 μM trichostatin A, and 1:100 dilution of protease inhibitor cocktail (Sigma-Aldrich). The lysates were clarified by centrifugation, quantified by BCA assay (Pierce), and aliquots were stored at −80° C. Cell lysates (15 or 20 μg) were resolved by SDS-PAGE under denaturing conditions on a 12% acrylamide gel and then transferred to a 0.2 μm nitrocellulose membrane (Bio-Rad). α-tubulin acetylation (K40) and total α-tubulin were probed with primary antibody clones 6-11B-1, and B-5-1-2, respectively, which were purchased from Sigma-Aldrich (1:2,000 dilution). Primary antibodies were probed with HRP-conjugated goat anti-mouse IgG (Jackson ImmunoResearch Laboratories, Inc., 1:10,000 dilution). Chemiluminescence signals were generated with the SuperSignal™ […] Chemiluminescent substrate (ThermoFisher Scientific) and visualized with a Bio-Rad ChemiDoc XRS+ imaging system.

SIRT2 = biological target: T1, SIRT2 (Homo sapiens, UniProt Q8IXJ6); experiment: Sirtuin inhibition assay with fluorogenic universal sirtuin substrate (SIRT2); format: biochemical; settings: for IC50: inhibition of SIRT2, mean ± standard deviation of two independent experiments
T1 sequence (Q8IXJ6 1-389): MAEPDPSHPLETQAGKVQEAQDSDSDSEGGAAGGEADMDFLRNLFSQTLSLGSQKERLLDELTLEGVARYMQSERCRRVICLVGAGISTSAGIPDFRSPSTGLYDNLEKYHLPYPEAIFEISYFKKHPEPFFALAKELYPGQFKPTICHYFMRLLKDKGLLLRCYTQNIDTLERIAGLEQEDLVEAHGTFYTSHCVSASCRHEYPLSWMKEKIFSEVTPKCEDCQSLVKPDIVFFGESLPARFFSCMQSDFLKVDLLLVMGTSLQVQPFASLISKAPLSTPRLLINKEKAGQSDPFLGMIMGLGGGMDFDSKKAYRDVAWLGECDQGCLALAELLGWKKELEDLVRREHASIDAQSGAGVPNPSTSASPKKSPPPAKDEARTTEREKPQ
Protocol: For inhibition assays, the eluted protein was loaded onto a HiPrep 26/10 desalting column (GE Healthcare) that had been pre-equilibrated with Source 15Q buffer A (20 mM Tris pH 8.0, 50 mM NaCl, 0.2 mM DTT, 10% glycerol). The desalted protein was concentrated by ultrafiltration to 1 mL (10 kDa MWCO) and applied to a 10 mL Source 15Q column (GE Healthcare) pre-equilibrated with Source 15Q buffer A. The column was washed with 3 CV (2 mL·min^−1) of Source 15Q buffer A and then eluted with a linear gradient from 0-60% Source 15Q buffer B (20 mM Tris pH 8.0, 1 M NaCl, 0.2 mM DTT, 10% glycerol; 1 mL·min^−1) over 5 CV. The fractions containing pure SIRT2 were concentrated and stored at −80° C. Enzyme concentration was determined from the absorbance at 280 nm using the calculated extinction coefficient of 32,470 M^−1·cm^−1.
Inhibition assays for SIRT1-3 were performed using a recently reported fluorogenic, universal sirtuin substrate (JPT Peptide Technologies, GmbH). The inhibition reactions were performed in 50 μL volumes at 37° C. in black, half-area, 96-well plates. The sirtuin enzyme (0.25 μM) was pre-incubated with different concentrations of the synthetic peptides (0.0064-50 μM for SIRT1 and SIRT2, 0.5-100 μM for SIRT3) or TB (0.16-150 μM for SIRT1-3) and 1 mM NAD^+ in assay buffer (20 mM Tris pH 7.8, 150 mM NaCl, 5 mM MgCl2, 1 mM DTT) for 15 minutes. Following incubation, the reaction was started with the addition of the substrate (5 μM) and product formation was monitored by measuring the fluorescence intensity every 20 seconds for 5 minutes (SIRT2) or 30 minutes (SIRT1 and SIRT3) in a BioTek Synergy H1 microplate reader at λEx=320 nm, λEm=408 nm (gain=130, read height=7 mm). Initial rates of product formation were determined by linear regression of the plot of fluorescence intensity versus time and normalized relative to 0% activity (max inhibitor) and 100% activity (no inhibitor) controls. IC50 values were determined by nonlinear regression of the plot of normalized initial rate versus inhibitor concentration using GraphPad Prism.

HEK 293T cells = experiment: Western blot of α-tubulin K40 acetylation in HEK 293T cells (SIRT2 inhibition in cells); format: cell-based, human; settings: 50 μM, 24 hours, versus vehicle control (0.25% DMF)
Protocol: as §1
MCF-7 (HTB-22) and HEK 293T (CRL-11268) cells purchased from American Type Culture Collection were grown in Dulbecco's Modified Eagle Medium (Invitrogen) containing 10% fetal bovine serum (Invitrogen) at 37° C. in an atmosphere of 5% CO2. Cells were seeded in a 6-well plate (Falcon 353046) at 5×10^5 viable cells/well, and grown for 24-48 hours to 60-70% confluence. […] After incubating with the inhibitors for 24 hours, the media was removed and the cells were washed twice with ice-cold PBS (Invitrogen). Cells were lysed on ice for 30 minutes in 100 μL of buffer containing 25 mM Tris pH 7.4, 150 mM NaCl, 10% glycerol, 4 mM MgCl2, 0.2 mM DTT, 1% NP-40, 25 mM nicotinamide, 5 μM trichostatin A, and 1:100 dilution of protease inhibitor cocktail (Sigma-Aldrich). The lysates were clarified by centrifugation, quantified by BCA assay (Pierce), and aliquots were stored at −80° C. […]

SIRT3 = biological target: T2, SIRT3 (Homo sapiens, UniProt Q9NTG7); experiment: Sirtuin inhibition assay with fluorogenic universal sirtuin substrate (SIRT3); format: biochemical; settings: selectivity SIRT2 over SIRT3
T2 sequence (Q9NTG7 1-399): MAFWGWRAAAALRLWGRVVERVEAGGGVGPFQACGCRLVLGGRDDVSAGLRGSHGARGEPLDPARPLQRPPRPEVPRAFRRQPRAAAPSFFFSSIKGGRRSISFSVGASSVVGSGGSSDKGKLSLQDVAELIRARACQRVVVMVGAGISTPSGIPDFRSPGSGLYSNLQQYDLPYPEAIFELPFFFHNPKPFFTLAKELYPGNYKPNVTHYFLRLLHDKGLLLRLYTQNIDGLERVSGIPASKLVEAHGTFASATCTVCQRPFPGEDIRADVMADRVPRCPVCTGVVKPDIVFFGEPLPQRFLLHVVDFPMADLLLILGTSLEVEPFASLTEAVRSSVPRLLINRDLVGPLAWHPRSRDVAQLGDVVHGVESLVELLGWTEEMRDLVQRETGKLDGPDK
Protocol: Cell pellets were resuspended in 50 mL of lysis buffer (50 mM Tris pH 7.4, 150 mM NaCl, 0.1 mM PMSF, 1% Triton X-100) and incubated in the presence of 1 mg·mL^−1 of lysozyme for 30 minutes on ice. Following incubation, the resuspension was sonicated twice (1 s on 1 s off, 1 min total, 60% output) and clarified by centrifugation. To the clarified supernatant was added 3 mL of a 50% slurry of immobilized glutathione resin (Genscript) and the mixture was incubated at 4° C. for 30 minutes with end-over-end rotation. After 30 minutes the mixture was filtered through a disposable column, and the resin was washed with 50 mL of lysis buffer containing 0.1% Triton X-100. […] Enzyme concentration was determined from the absorbance at 280 nm using the calculated extinction coefficient of 80,790 M^−1·cm^−1.
Inhibition assays for SIRT1-3 were performed using a recently reported fluorogenic, universal sirtuin substrate (JPT Peptide Technologies, GmbH). […] Following incubation, the reaction was started with the addition of the substrate (5 μM) and product formation was monitored by measuring the fluorescence intensity every 20 seconds for 5 minutes (SIRT2) or 30 minutes (SIRT1 and SIRT3) in a BioTek Synergy H1 microplate reader at λEx=320 nm, λEm=408 nm (gain=130, read height=7 mm). […]

SIRT1 = biological target: T3, SIRT1 (Homo sapiens, UniProt Q96EB6); experiment: Sirtuin inhibition assay with fluorogenic universal sirtuin substrate (SIRT1); format: biochemical; settings: selectivity SIRT2 over SIRT1
T3 sequence (Q96EB6 1-747): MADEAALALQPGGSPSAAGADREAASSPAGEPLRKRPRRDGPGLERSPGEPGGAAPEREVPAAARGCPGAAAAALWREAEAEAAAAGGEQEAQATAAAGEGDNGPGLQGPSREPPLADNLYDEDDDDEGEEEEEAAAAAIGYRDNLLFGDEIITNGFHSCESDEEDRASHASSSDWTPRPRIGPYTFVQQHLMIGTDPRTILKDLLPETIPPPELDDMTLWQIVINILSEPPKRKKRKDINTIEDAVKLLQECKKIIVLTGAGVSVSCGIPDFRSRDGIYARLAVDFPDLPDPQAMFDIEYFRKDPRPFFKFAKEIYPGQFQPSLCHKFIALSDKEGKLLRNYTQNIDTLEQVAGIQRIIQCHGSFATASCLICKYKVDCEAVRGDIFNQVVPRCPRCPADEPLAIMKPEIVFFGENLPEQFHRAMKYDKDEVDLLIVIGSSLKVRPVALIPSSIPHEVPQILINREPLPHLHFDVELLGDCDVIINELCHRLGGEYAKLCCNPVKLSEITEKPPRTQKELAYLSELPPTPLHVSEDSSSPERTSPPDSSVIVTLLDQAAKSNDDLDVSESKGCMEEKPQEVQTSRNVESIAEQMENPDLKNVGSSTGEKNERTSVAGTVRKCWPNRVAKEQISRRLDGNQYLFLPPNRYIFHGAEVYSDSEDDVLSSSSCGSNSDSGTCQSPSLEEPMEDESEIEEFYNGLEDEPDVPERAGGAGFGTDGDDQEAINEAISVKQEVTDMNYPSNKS
Protocol: Cell pellets were resuspended in 50 mL of lysis buffer (50 mM Tris pH 8.0, 250 mM NaCl, 10 mM imidazole, 0.1 mM phenylmethanesulfonyl fluoride (PMSF), 1% Triton X-100) and incubated with 1 mg·mL^−1 lysozyme (chicken egg white) for 30 minutes on ice. Following incubation, the resuspension was sonicated twice (1 s on, 1 s off, 1 min total, 60% output) and clarified by centrifugation. […] After 30 minutes, the mixture was filtered through a disposable column and the resin was washed with 40 mL of lysis buffer containing 0.1% Triton X-100, followed by 40 mL of lysis buffer without Triton X-100. […] Enzyme concentration was determined from the absorbance at 280 nm using the calculated extinction coefficient of 40,340 M^−1·cm^−1.
Inhibition assays for SIRT1-3 were performed using a recently reported fluorogenic, universal sirtuin substrate (JPT Peptide Technologies, GmbH). […] Following incubation, the reaction was started with the addition of the substrate (5 μM) and product formation was monitored by measuring the fluorescence intensity every 20 seconds for 5 minutes (SIRT2) or 30 minutes (SIRT1 and SIRT3) in a BioTek Synergy H1 microplate reader at λEx=320 nm, λEm=408 nm (gain=130, read height=7 mm). […] IC50 values were determined by nonlinear regression of the plot of normalized initial rate versus inhibitor concentration using GraphPad Prism.

Row | Structure (SMILES) | increase in acetylation level compared to S2P04 in vivo (in cells) (MCF-7 cells) | IC50 (SIRT2) | α-tubulin acetylation (lysine 40) (MCF-7 cells) | α-tubulin acetylation (lysine 40) (HEK 293T cells) | further results
1 | CCCC(=S)NCCCC[C@H](NC(=O)[C@@H](NC(=O)[C@@H](NC(=O)[C@H](CS)NC(C)=O)[C@@H](C)O)C(C)C)C(=O)N[C@H](C(N)=O)[C@@H](C)CC [Ac-S2P04-5, Ac-CTVXI-NH2] (Ac-CTV[X1]I-NH2) | neither led to a greater increase in acetylation level compared to S2P04 |  |  |  | 
2 | CCCC(=S)NCCCC[C@H](NC(=O)OCc1ccccc1)C(=O)Nc1ccccc1 [TB, reference compound] |  | 3110 nM | increase in α-tubulin acetylation compared to the control | No increase in α-tubulin acetylation | 
3 | CCCC(=S)NCCCC[C@H](NC(=O)[C@@H](NC(=O)[C@@H](NC(=O)[C@@H](N)CS)[C@@H](C)O)C(C)C)C(=O)N[C@H](C(N)=O)[C@@H](C)CC [Compound S2P04-5] (H-CTV[X1]I-NH2; N-terminus and C-terminus assumed) |  | 136 ± 29 nM |  |  | 
4 | CCCC(=S)NCCCC[C@H](NC(=O)[C@@H](NC(=O)[C@@H](NC(=O)[C@H](CS)NC(=O)[C@@H](N)[C@@H](C)O)[C@@H](C)O)C(C)C)C(=O)N[C@H](C(=O)NCC(N)=O)[C@@H](C)CC [Compound S2P04, NH2-TCTVXIG-NH2] (H-TCTV[X1]IG-NH2) |  |  | increase in α-tubulin acetylation | increase in α-tubulin acetylation | fold more potent than TB (SIRT2; for each enzyme (SIRT1, SIRT2, SIRT3)): at least 33 fold; fold more potent inhibition of SIRT2 than SIRT3 (SIRT3): 152 fold; fold more potent inhibition of SIRT2 than SIRT1 (SIRT1): 2.7 fold
5 | CCCC(=S)NCCCC[C@H](NC(=O)[C@@H](NC(=O)[C@@H](NC(=O)[C@@H](N)CC)[C@@H](C)O)C(C)C)C(=O)N[C@H](C(N)=O)[C@@H](C)CC [S2P04(Abu)-5, NH2-ZTVXI-NH2] (H-[Abu]TV[X1]I-NH2) | neither led to a greater increase in acetylation level compared to S2P04 |  |  |  | 
